Entries after “also recorded” stand apart in the source; their conditions may differ. Read-outs that look alike come from different tables or passages of the source.
How the values were obtained:
[1] = system: lysis of P815 (H-2d) cells by cloned anti-Dd G4 cells
[2] = molecular target: T1, CTL serine esterase (BLT-serine esterase) in extract of murine CTL clone G4 (Mus musculus, UniProt P11032)
T1 sequence (P11032 29-260): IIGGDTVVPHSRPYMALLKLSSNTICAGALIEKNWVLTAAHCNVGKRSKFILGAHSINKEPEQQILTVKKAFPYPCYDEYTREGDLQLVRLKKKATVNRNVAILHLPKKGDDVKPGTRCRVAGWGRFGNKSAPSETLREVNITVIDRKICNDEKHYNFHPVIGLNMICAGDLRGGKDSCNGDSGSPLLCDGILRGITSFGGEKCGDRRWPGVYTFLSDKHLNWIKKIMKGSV

[3] = system: human CTLs and target cells; test: Viability of human CTLs (trypan blue exclusion) and targets (51Cr release) after PMSF; details: 15 min in 6 mM PMSF
G4 cells = test: Toxicity of inhibitor for G4 cells (51Cr release, trypan blue recovery); type: cell-based, murine; details: PMSF at the concentrations shown (0.375-3 mM), 3% DMSO
[4] = system: cytolytic activity of human CTLs; test: PMSF inhibition of cytolysis by human CTLs (2-h 51Cr-release assay); type: cell-based; details: 15 min in 6 mM PMSF
Method: ^51 Cr-release killing assays were performed as described; when measuring lectin-dependent cytolytic activity, Con A (Vector Laboratories,Inc., Burlingame, CA) was added to a final concentration of 10 μg/ml.
Various numbers of T cells were incubated for 15 min at 37° C. in K medium containing PMSF at 0, 2, 4, and 6 mM (PMSF was added in DMSO; the final concentration of DMSO in all instances was 1%). Cytotoxicity was assayed as above except that a 2 hour assay was used to minimize the effect of new protein synthesis.

[5] = molecular target: T1, CTL serine esterase (BLT-serine esterase) in extract of murine CTL clone G4; test: biochemical; details: read-out: Percent Inhibition of esterase activity

Molecule: O=S(=O)(F)Cc1ccccc1 [PMSF, phenylmethylsulfonyl fluoride]
- inhibition of lysis of P815 cells by G4 cells (in words) ([1]; nontoxic concentrations, G4 preincubated 30 minutes at 37° C.): clearly inhibits lysis
- Percent Inhibition of esterase activity [2]: 97.2
- inhibition of murine CTL serine esterase activity (in words) [2]: blocked completely; also recorded: inhibited; also recorded: completely inhibitable
- viability of CTLs (trypan blue exclusion) and targets (release of 51Cr) [3]: not affecting the viability
- added toxicity for G4 cells (51Cr release or reduced recovery of viable cells) (G4 cells): no added toxicity
- reduction of cytotoxicity [4]: approximately 75%

Molecule: α2 macroglobulin
- inhibition of serine esterase (in words) [2]: not inhibited

Molecule: Cc1ccc(S(=O)(=O)N[C@@H](CCCCN)C(=O)CCl)cc1 [TLCK, N-α-tosyl lysyl chloromethyl ketone]
- inhibition of murine CTL serine esterase activity (in words) [2]: not and not, however, inhibited
- inhibition of serine esterase (in words) [2]: not inhibited
- inhibition at 500 µM [5]: 4.6%

Molecule: Cc1ccc(S(=O)(=O)N[C@@H](Cc2ccccc2)C(=O)CCl)cc1 [TPCK, N-tosyl-L-phenylalanine chloromethyl ketone]
- inhibition of murine CTL serine esterase activity (in words) ([2]; murine enzyme): not

Molecule: aprotinin
- inhibition of CTL-mediated lysis (in words) [1]: does not inhibit
- inhibition of cytotoxicity (in words) [1]: appears to inhibit cytotoxicity
- inhibition in vitro of purified BLT serine esterase (in words) [2]: potent inhibitor
- inhibition of serine esterase (in words) [2]: essentially totally inhibited

Source: US5017489A (priority 1988, dated 1991)
